Some test systems named below: CAKI-1 renal; A549 NSCLC; ACHN renal; EKVX NSCLC; MOLT-4 leukemia; SNB-19 CNS; HS 578T breast; HCT-116 colon; SK-OV-3 ovarian; SNB-75 CNS.
Holding throughout (experiment): growth of human tumour cells (NCI), 48 h

The text below walks through data of PubChem BioAssay (NCI).

Values joined by “and” are separate entries in the source; they are usually repeats but may differ in a detail not shown here. Identical values can stand only once.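 Cells were grown in 96-well plates and exposed to each compound for 48 hours at five concentrations; endpoints were interpolated linearly between bracketing concentrations, or set to the highest concentration if not reached. At the GI50, growth is halved. TGI marks complete inhibition of growth.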

Consider `CC(CCC/C=C/CCCN(C)C(=N)N)CC(C)C1OC(=O)C(C)C(O)/C=C/C(C)C(O)C(C)C(O)C(C)C(O)CCCC(O)CC2(O)OC(CC(OC(=O)CC(=O)O)CC(O)CC(O)C(C)C(O)/C=C/C=C/C1C)CC(O)C2O` (centres undefined), for which the GI50 is 2.01 µM and 7.96 µg/mL in the assay with CAKI-1 renal; 2.45 µM and 4.42 µg/mL in the assay on A549 NSCLC; 2 µM and 5.72 µg/mL with ACHN renal; 3.41 µM and 6.84 µg/mL with EKVX NSCLC; 2.78 µM and 11.1 µg/mL in the assay on MOLT-4 leukemia; 4.9 µM and 10.1 µg/mL in the assay with SNB-19 CNS. The GI50 is 2.56 µM and 2.5 µg/mL in the assay on HS 578T breast; 2.52 µM and 9.15 µg/mL in the assay on HCT-116 colon; 3 µM and 9.08 µg/mL in the assay with SK-OV-3 ovarian; 2.05 µM and 1.34 µg/mL with SNB-75 CNS. Moreover, the TGI in the assay on CAKI-1 renal was 5.24 µM and 17.7 µg/mL; with A549 NSCLC, 5.63 µM and 16.8 µg/mL; in the assay with ACHN renal it was 4.31 µM and 20.6 µg/mL; in the assay with EKVX NSCLC, 12.6 µM and 16.8 µg/mL; in the assay on MOLT-4 leukemia, 5.88 µM and 28.4 µg/mL; in the assay with SNB-19 CNS, 17 µM and 21.8 µg/mL. Besides, the TGI with HS 578T breast was 7.84 µM and 12.9 µg/mL; with HCT-116 colon it was 6.13 µM and 24.4 µg/mL; in the assay on SK-OV-3 ovarian, 11.7 µM and 18.5 µg/mL; in the assay on SNB-75 CNS, 4.94 µM and 7.44 µg/mL.
Regarding `C=C1C(=O)O[C@H]2[C@H]1CC/C(Cn1cc(CNC(=O)c3cc4ccccc4[nH]3)nn1)=C\CC[C@@]1(C)O[C@@H]21`, the GI50 with CAKI-1 renal is 2.26 µM; in the assay with A549 NSCLC, 22.1 µM; in the assay with ACHN renal it was 4.73 µM; with EKVX NSCLC, 13.2 µM; with MOLT-4 leukemia, 2.71 µM; in the assay with SNB-19 CNS, 7.44 µM. The GI50 is 19 µM in the assay with HS 578T breast, 1.59 µM in the assay on HCT-116 colon, 50.4 µM with SK-OV-3 ovarian and 10.4 µM in the assay with SNB-75 CNS. Also, the TGI is 12.2 µM in the assay with CAKI-1 renal; 46.5 µM in the assay on A549 NSCLC; 17.2 µM in the assay with ACHN renal; 30.2 µM with EKVX NSCLC; 7.15 µM in the assay with MOLT-4 leukemia; 20.4 µM in the assay on SNB-19 CNS. Further, the TGI in the assay with HS 578T breast is 55.4 µM; with HCT-116 colon it was 3.56 µM; with SK-OV-3 ovarian it was greater than 100 µM; with SNB-75 CNS, 22.4 µM.
For `Cn1c(N)c(N=Nc2ccc(S(N)(=O)=O)cc2)c(=O)n(C)c1=O`, the TGI in the assay with CAKI-1 renal, in the assay with A549 NSCLC, in the assay on ACHN renal, in the assay with EKVX NSCLC, in the assay on MOLT-4 leukemia and in the assay on SNB-19 CNS was greater than 100 µM in each case. The TGI with HS 578T breast was 99.1 µM; in the assay on HCT-116 colon, greater than 100 µM; in the assay on SK-OV-3 ovarian it was greater than 100 µM; in the assay on SNB-75 CNS, 56.2 µM.
In the case of `CCN(CC)CCC(CNc1c2ccc(Cl)cc2nc2ccc(OC)cc12)c1ccccc1` (centres undefined), the GI50 in the assay on CAKI-1 renal was 1.3 µM; with A549 NSCLC, 1.51 µM; in the assay on ACHN renal it was 1.05 µM; in the assay on EKVX NSCLC it was 2.32 µM; with MOLT-4 leukemia, 0.486 µM; in the assay with SNB-19 CNS it was 1.36 µM. For the same compound, the GI50 is 1.95 µM in the assay on HS 578T breast, 0.729 µM in the assay with HCT-116 colon, 1.64 µM with SK-OV-3 ovarian and 1.49 µM with SNB-75 CNS. In addition, the TGI in the assay on CAKI-1 renal was found to be 3.62 µM; in the assay with A549 NSCLC it was 3.49 µM; in the assay with ACHN renal, 3.19 µM; in the assay with EKVX NSCLC, 8.3 µM; in the assay with MOLT-4 leukemia, 5 µM; in the assay on SNB-19 CNS, 4.2 µM. Moreover, the TGI in the assay on HS 578T breast came to 5.44 µM; in the assay on HCT-116 colon, 3.52 µM; with SK-OV-3 ovarian, 3.5 µM; in the assay with SNB-75 CNS it was 2.83 µM.
For `COc1cc(OC)c(-c2oc3ccccc3c(=O)c2O)c(OC)c1`, the TGI in the assay on CAKI-1 renal is greater than 40.5 µM; in the assay on A549 NSCLC, greater than 100 µM; in the assay on ACHN renal, greater than 100 µM; in the assay on EKVX NSCLC it was greater than 100 µM; in the assay on MOLT-4 leukemia, greater than 100 µM; with SNB-19 CNS it was greater than 100 µM. Moreover, the TGI with HS 578T breast was 24.2 µM; in the assay on HCT-116 colon, greater than 100 µM; with SK-OV-3 ovarian it was greater than 100 µM; in the assay with SNB-75 CNS it was greater than 100 µM.
As for `NC(=O)NOCC1NC(=O)NC1=O` (centres undefined), the TGI in the assay with CAKI-1 renal, in the assay with A549 NSCLC, in the assay with ACHN renal, with EKVX NSCLC, with MOLT-4 leukemia and with SNB-19 CNS was greater than 100 µM each time. The TGI in the assay on HS 578T breast, in the assay on HCT-116 colon, with SK-OV-3 ovarian and with SNB-75 CNS was greater than 100 µM throughout.
In the case of `C[CH2][Ge]1([CH2]C)[CH2]CC2(CCN(CCCN(C)C)C2)C[CH2]1`, the GI50 with CAKI-1 renal is 1.61 µM and 3.04 µM; in the assay with A549 NSCLC it was 1.44 µM and 2.35 µM; with ACHN renal it was 1.84 µM and 1.7 µM; in the assay with EKVX NSCLC, 1.7 µM and 2.33 µM; in the assay with SNB-19 CNS, 2.21 µM and 4.46 µM; in the assay with HS 578T breast, 1.57 µM. Besides, the GI50 in the assay with HCT-116 colon is 1.45 µM; in the assay on SK-OV-3 ovarian, 2.64 µM and 3.59 µM; with SNB-75 CNS, 0.175 µM and 1.48 µM. The TGI was 3.31 µM and 8.49 µM in the assay with CAKI-1 renal; 2.93 µM and 4.47 µM in the assay with A549 NSCLC; 3.66 µM and 3.95 µM in the assay with ACHN renal; 6.56 µM and 4.44 µM in the assay on EKVX NSCLC; 2.91 µM and 25.7 µM in the assay on MOLT-4 leukemia; 5.57 µM and 9.89 µM with SNB-19 CNS. The TGI in the assay on HS 578T breast is 3.3 µM; with HCT-116 colon it was 2.79 µM and 1 µM; in the assay with SK-OV-3 ovarian it was 6.11 µM and 9.62 µM; with SNB-75 CNS, 1.84 µM and 3.24 µM.
For `COC(=O)c1cc(CNCCc2c[nH]c3ccccc23)on1`, the TGI with CAKI-1 renal, with A549 NSCLC, in the assay on ACHN renal, in the assay with EKVX NSCLC, with MOLT-4 leukemia and in the assay on SNB-19 CNS was greater than 100 µM each time. Further, the TGI in the assay on HS 578T breast, in the assay with HCT-116 colon, in the assay on SK-OV-3 ovarian and in the assay with SNB-75 CNS was greater than 100 µM each time.
